In one assay the target is T1, H3 receptors (Cavia porcellus, UniProt Q9JI35).
T1 construct: The source of the H3 receptors in this experiment was guinea pig brain; from tissue; host or cells: guinea pig brain membranes
The assay can be described thus: H3-Receptor Binding Assay (guinea pig brain membranes, [3H]R-a-methylhistamine or [3H]Na-methylhistamine). On the procedure: The source of the H3 receptors in this experiment was guinea pig brain. The animals weighed 400-600 g. The brain tissue was homogenized using a Polytron in a solution of 50 mM Tris, pH 7.5. The final concentration of tissue in the homogenization buffer was 10% w/v. The homogenates were centrifuged at 1,000×g for 10 min. in order to remove clumps of tissue and debris. The resulting supernatants were then centrifuged at 50,000×g for 20 min. in order to sediment the membranes, which were next washed three times in homogenization buffer (50,000×g for 20 min. each). The membranes were frozen and stored at -70° C. until needed.
All compounds to be tested were dissolved in DMSO and then diluted into the binding buffer (50 mM Tris, pH 7.5) such that the final concentration was 2 μg/ml with 0.1% DMSO. Membranes were then added (400 μg of protein) to the reaction tubes. The reaction was started by the addition of 3 nM [^3 H]R-a-methylhistamine (8.8 Ci/mmol) or 3 nM [^3 H]N^a -methylhistamine (80 Ci/mmol) and continued under incubation at 30° C. for 30 min. Bound ligand was separated from unbound ligand by filtration, and the amount of radioactive ligand bound to the membranes was quantitated by liquid scintillation spectrometry. All incubations were performed in duplicate and the standard error was always less than 10%. […] The results are given in the table below for the HCl salt of the indicated compound.

The test system of assay [1] is electrically induced convulsions. As to conditions: mice; Yokoyama et al., Eur. J. Pharmacol. 1993; cited from earlier work.
Assay [2] deals with short-term memory and reversal learning. As to conditions: rat; Clapham et al., Brit. J. Pharm. Suppl. 1993; cited from earlier work.
Where [3] appears, read: HCl salt of the indicated compound, guinea pig brain membranes, 3 nM [3H]R-a-methylhistamine or 3 nM [3H]Na-methylhistamine, pH 7.5, 30° C., 30 min, read-out: Ki.

Data on 21 molecules can be found in US5990147A, “H3 receptor ligands of the phenyl-alkyl-imidazoles type” (Schering Corporation, priority 1998, dated 1999).

Read-outs that look alike come from different tables or passages of the source.

T1 sequence (Q9JI35 whole entry): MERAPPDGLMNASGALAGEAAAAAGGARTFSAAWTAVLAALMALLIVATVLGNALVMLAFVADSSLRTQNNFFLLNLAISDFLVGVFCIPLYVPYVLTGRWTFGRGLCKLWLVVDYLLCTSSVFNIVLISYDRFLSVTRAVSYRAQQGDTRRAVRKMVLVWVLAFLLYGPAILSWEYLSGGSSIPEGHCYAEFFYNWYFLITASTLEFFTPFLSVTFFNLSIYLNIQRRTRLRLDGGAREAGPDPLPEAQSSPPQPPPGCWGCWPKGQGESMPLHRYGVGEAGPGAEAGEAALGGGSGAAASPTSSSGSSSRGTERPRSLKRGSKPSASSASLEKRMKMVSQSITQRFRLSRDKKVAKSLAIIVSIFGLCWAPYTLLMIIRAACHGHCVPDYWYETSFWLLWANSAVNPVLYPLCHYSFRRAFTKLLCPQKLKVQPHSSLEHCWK

The term Ki denotes the dissociation constant of the complex between target and ligand, obtained from inhibition or displacement. Consider `O=C(Nc1cc(Cl)cc(Cl)c1)OCc1ccc(Cc2c[nH]cn2)cc1` [Compound 20], for which the Ki at H3 receptors (setting [3]) is 5 nM.
On the same count and under the same terms, for `O=C(NCc1ccc(Cc2c[nH]cn2)cc1)Nc1cc(C(F)(F)F)cc(C(F)(F)F)c1` [Compound 2] the value was 22 nM.
Still for that read-out and setting: for `Cc1cc(C)cc(NC(=O)NCc2ccc(Cc3c[nH]cn3)cc2)c1` [Compound 3] the value was 9 nM.
Take `S=C(NC1CCCCC1)N1CCC(c2cnc[nH]2)CC1` [thioperamide]: in assay [1], the “duration of each phase of convulsion” value is “decreased the duration of each phase of convulsion” and the electroconvulsive threshold entry is listed as “raised the electroconvulsive threshold”. In assay [2], the “short-term memory and reversal learning” value was “can improve short-term memory and reversal learning in the rat”.
`O=C(Nc1cccc(F)c1)OCc1ccc(Cc2c[nH]cn2)cc1` [Compound 19]: the Ki at H3 receptors turned out to be 5 nM.
The same measure, in the same setting: for `O=C(CCc1ccc(Cc2c[nH]cn2)cc1)NCCc1ccc(Cl)cc1` [Compound 24] the value was 5 nM.
As for `O=C(NCc1ccc(Cc2c[nH]cn2)cc1)Nc1cccc(C(F)(F)F)c1` [Compound 6], at H3 receptors (setting [3]), the inhibition constant (Ki) was found to be 16 nM.
In the case of `COc1cccc(NC(=O)OCc2ccc(Cc3c[nH]cn3)cc2)c1` [Compound 17], at H3 receptors, affinity was put at a Ki of 13 nM.
In the case of `O=C(NCc1ccc(Cc2c[nH]cn2)cc1)Nc1ccccc1Cl` [Compound 4], the Ki on H3 receptors (setting [3]) came to 32 nM.
Same read-out and setting: the value for `O=C(Nc1ccc(Cl)c(Cl)c1)OCc1ccc(Cc2c[nH]cn2)cc1` [Compound 13] was 18 nM.
Molecule `O=C(CCc1ccc(Cc2c[nH]cn2)cc1)Nc1cccc(Cl)c1` [Compound 22] showed an inhibition constant (Ki) at H3 receptors of 1 nM.
For the molecule `O=C(NCc1ccc(Cc2c[nH]cn2)cc1)Nc1cc(Cl)cc(Cl)c1` [Compound 8], the Ki at H3 receptors turned out to be 12 nM; on H3 receptors (setting [3]), 4 nM.
At H3 receptors, `Cc1cc(C)cc(NC(=O)OCc2ccc(Cc3c[nH]cn3)cc2)c1` [Compound 14] displayed an inhibition constant Ki of 17 nM.
On to `COc1cccc(NC(=O)NCc2ccc(Cc3c[nH]cn3)cc2)c1` [Compound 1], for which the Ki on H3 receptors (setting [3]) amounted to 18 nM.
In turn, `N#Cc1cccc(NC(=O)OCc2ccc(Cc3c[nH]cn3)cc2)c1` [Compound 15] gave an inhibition constant (Ki) at H3 receptors of 7 nM.
`O=C(NCc1ccc(Cc2c[nH]cn2)cc1)Nc1ccc(Cl)c(Cl)c1` [Compound 10]: the inhibition constant (Ki) at H3 receptors (setting [3]) was found to be 7 nM.
The same measure, in the same setting: the value for `O=C(Nc1cc(C(F)(F)F)cc(C(F)(F)F)c1)OCc1ccc(Cc2c[nH]cn2)cc1` [Compound 18] was 23 nM.
For the molecule `O=C(Nc1cccc(C(F)(F)F)c1)OCc1ccc(Cc2c[nH]cn2)cc1` [Compound 12], the inhibitory constant (Ki) at H3 receptors was found to be 21 nM.
Consider `N#Cc1cccc(NC(=O)NCc2ccc(Cc3c[nH]cn3)cc2)c1` [Compound 7], for which the Ki on H3 receptors (setting [3]) was found to be 5 nM.
`O=C(CCc1ccc(Cc2c[nH]cn2)cc1)Nc1ccccc1` [Compound 21] displayed an inhibitory constant (Ki) on H3 receptors of 2 nM.
On to `O=C(NCc1ccc(Cc2c[nH]cn2)cc1)Nc1cccc(Cl)c1` [Compound 9], for which the inhibition constant (Ki) on H3 receptors (setting [3]) was found to be 6 nM.
